# Laboratory results: ChEMBL document CHEMBL6087402, “Design, synthesis, and in vitro and in vivo biological evaluation of dihydroartemisinin derivatives as potent anti-cancer agents with ferroptosis-inducing and apoptosis-activating properties” (Eur J Med Chem, 2025)
# Activity calls are given as the source filed them. The rule behind the calls is not given here.
# Experiments:
# [1] = Toxicity in BALB/c mouse assessed as apparent damage in kidney at 100 mg/kg, ip administered continuously for 7 days by H and E staining based analysis; assay type: organism-based; details: in vivo, 168 h, time 7 day
# [2] = Toxicity in BALB/c mouse assessed as difficulty in breathing at 100 mg/kg, ip administered continuously for 7 days; assay type: organism-based; details: in vivo, 168 h, time 7 day
# [3] = system: HCT-116; experiment: Induction of ferroptosis in human HCT-116 cells incubated for 72 hrs in presence of DFO by MTT assay; assay type: functional, cell-based
# [4] = system: HCT-116; experiment: Depletion of GSH in human HCT-116 cells assessed as reduction in GSH/GSSG ratio upto 3 uM incubated for 24 hrs; assay type: functional, cell-based
# [5] = system: HCT-116; experiment: Induction of cell cycle arrest in human HCT-116 cells assessed as accumulation at G0/G1 phase at 0.03 uM incubated for 72 hrs by PI staining based flow cytometry (reference value: 80.71 %); assay type: functional
# [6] = Selectivity index, ratio of IC50 for human L02 cells to IC50 for human A549 cells; assay type: toxicity; details: L02 cells versus A549 cells, read-out: Ratio IC50
# [7] = system: A549; experiment: Anti-proliferative activity against human A549 cells incubated for 72 hrs by MTT assay; assay type: functional, cell-based; details: A549, 72 h
# [8] = system: HCT-116; experiment: Anti-proliferative activity against human HCT-116 cells assessed as reduction in total STAT3 level upto 3 uM incubated for 72 hrs by Western blot analysis; assay type: functional, cell-based
# [9] = system: HCT-116; experiment: Induction of oxidative stress in human HCT-116 cells assessed as increase in MDA level incubated for 24 hrs; assay type: functional, cell-based; details: dose <= 3.0 µM
# [10] = system: HCT-116; experiment: Induction of apoptosis in human HCT-116 cells assessed as viable cells at 0.03 uM incubated for 72 hrs by Annexin V-FITC/PI staining based flow cytometry (reference value: 97.1 %); assay type: functional; details: read-out: Activity
# [11] = system: HCT-116; experiment: Antitumor activity against human HCT-116 cells xenografted in mouse assessed as reduction in cellular atypia at 50 mg/kg, ip administered once in every 2 days for 21 days by H and E staining based analysis; assay type: functional, organism-based; details: time 21.0 day
# [12] = Toxicity in mouse xenografted with human HCT-116 cells assessed as body weight change at 50 mg/kg, ip administered once in every 2 days for 21 days; assay type: organism-based; details: in vivo, 504 h, time 21 day
# [13] = system: HCT-116; experiment: Induction of apoptosis in human HCT-116 cells assessed as late apoptotic cells at 3 uM incubated for 72 hrs by Annexin V-FITC/PI staining based flow cytometry (reference value: 0.98 %); assay type: functional
# [14] = system: HCT-116; experiment: Induction of apoptosis in human HCT-116 cells assessed as increase in p38 level upto 3 uM incubated for 72 hrs by Western blot analysis; assay type: functional, cell-based
# [15] = system: HCT-116; experiment: Induction of ferroptosis in human HCT-116 cells assessed as reduction in GPX4 level upto 3 uM incubated for 72 hrs by Western blot analysis; assay type: functional, cell-based
# [16] = Toxicity in BALB/c mouse assessed as apparent damage in spleen at 100 mg/kg, ip administered continuously for 7 days by H and E staining based analysis; assay type: organism-based; details: in vivo, 168 h, time 7 day
# [17] = system: HCT-116; experiment: Induction of apoptosis in human HCT-116 cells assessed as increase in Bax level upto 3 uM incubated for 72 hrs by Western blot analysis; assay type: functional, cell-based
# [18] = system: HCT-116; experiment: Induction of cell cycle arrest in human HCT-116 cells assessed as accumulation at G0/G1 phase at 3 uM incubated for 72 hrs by PI staining based flow cytometry (reference value: 80.71 %); assay type: functional
# [19] = Selectivity index, ratio of IC50 for human L02 cells to IC50 for human SW620 cells; assay type: toxicity; details: L02 cells versus SW620 cells, read-out: Ratio IC50
# [20] = system: HCT-116; experiment: Induction of apoptosis in human HCT-116 cells in presence of Z-VAD-FMK; assay type: functional, cell-based
# [21] = system: HCT-116; experiment: Induction of apoptosis in human HCT-116 cells assessed as early apoptotic cells at 3 uM incubated for 72 hrs by Annexin V-FITC/PI staining based flow cytometry (reference value: 1.55 %); assay type: functional
# [22] = system: HCT-116; experiment: Inhibition of colony formation in human HCT-116 cells at 3 uM incubated for 7 to 12 days by crystal violet staining based analysis relative to control; assay type: functional; details: time 7-12 day
# [23] = system: HCT-116; experiment: Induction of apoptosis in human HCT-116 cells assessed as late apoptotic cells at 0.03 uM incubated for 72 hrs by Annexin V-FITC/PI staining based flow cytometry (reference value: 0.98 %); assay type: functional
# [24] = Anti-proliferative activity against human L02 cells incubated for 72 hrs by MTT assay; assay type: toxicity, cell-based
# [25] = system: HCT-116; experiment: Induction of ferroptosis in human HCT-116 cells incubated for 72 hrs in presence of Fer-1 by MTT assay; assay type: functional, cell-based
# [26] = Toxicity in BALB/c mouse assessed as lethal dose administered intraperitoneally continuously for 7 days; details: in vivo, route ip, time 7 day
# [27] = Toxicity in BALB/c mouse assessed as change fur luster at 100 mg/kg, ip administered continuously for 7 days; assay type: organism-based; details: in vivo, 168 h, time 7 day
# [28] = system: HCT-116; experiment: Induction of apoptosis in human HCT-116 cells assessed as decrease in Bcl-2 level upto 3 uM incubated for 72 hrs by Western blot analysis; assay type: functional, cell-based
# [29] = Toxicity in BALB/c mouse assessed as decrease in body weight at 100 mg/kg, ip administered continuously for 7 days; assay type: organism-based; details: in vivo, 168 h, time 7 day
# [30] = system: HCT-116; experiment: Anti-proliferative activity against human HCT-116 cells incubated for 72 hrs by MTT assay; assay type: functional, cell-based; details: HCT-116, 72 h
# [31] = system: HCT-116; experiment: Induction of cell cycle arrest in human HCT-116 cells assessed as accumulation at G2/M phase at 0.03 uM incubated for 72 hrs by PI staining based flow cytometry (reference value: 15.79 %); assay type: functional
# [32] = system: HCT-116; experiment: Inhibition of cell proliferation in human HCT-116 cells incubated for 12 hrs by EdU assay; assay type: functional, cell-based; details: dose <= 3.0 µM
# [33] = system: HCT-116; experiment: Induction of cell cycle arrest in human HCT-116 cells assessed as accumulation at S phase at 0.03 uM incubated for 72 hrs by PI staining based flow cytometry (reference value: 23.49 %); assay type: functional
smiles,measurement,setting,value
C[C@@H]1CC[C@H]2[C@@H](C)C(OC(=O)Nc3ccc(Cl)cc3)O[C@@H]3O[C@@]4(C)CC[C@H]1[C@]32OO4 (stereo partly drawn),Activity,[1],Non-toxic
same,Activity,[2],Non-toxic
same,Activity,[3],inactive
same,Activity,[4],Active
same,Activity,[5],49.21%
same,selectivity ratio,[6],16.8
same,IC50,[7],1000 nM
same,Activity,[8],Active
same,Activity,[9],Dose-dependent-effect
same,viability at 0.03 µM,[10],93.3%
same,Activity,[11],Active
same,Activity,[12],Non-toxic
same,Activity,[13],26.2%
same,Activity,[14],Active
same,Activity,[15],Active
same,Activity,[16],Non-toxic
same,Activity,[17],Active
same,Activity,[18],42.97%
same,selectivity ratio,[19],28
same,Activity,[20],inactive
same,Activity,[21],17%
same,inhibition at 3 µM,[22],62.1%
same,Activity,[23],2.4%
same,IC50 at 72 h,[24],16800 nM
same,Activity,[25],inactive
same,LD50 at 168 h,[26],> 100 mg/kg
same,Activity,[27],Non-toxic
same,Activity,[28],Active
same,Activity,[29],Non-toxic
same,IC50,[30],310 nM
same,Activity,[31],25.25%
same,inhibition,[32],Dose-dependent-effect
same,Activity,[33],25.54%
